{"source": "patent US20090270373A1", "about": "“TREATMENT OF DOWN SYNDROM WITH BENZODIAZEPINE RECEPTOR ANTAGONISTS” (Cypress Biosciences, Inc., priority 2008, published 2009)", "key": {"WT and Ts65Dn mice": {"system": "WT and Ts65Dn mice", "test": "Open-field locomotor assay (LMA), 30 min session", "format": "in vivo, mouse", "conditions": "WT and Ts65Dn mice", "procedure": "Following baseline determinations and group assignments, WT and Ts65Dn mice received intraperitoneal (i.p.) injections once/day (08:00) for the two-week duration of the drug treatment regimen (FIG. 1). Drugs were dissolved in physiological saline. Two drops of Tween 80 were used to facilitate solution formation for flumazenil. Picrotoxin was initially made up at 50× concentration in 20% ethanol and then diluted down to a […] solution with 0.4% ETOH in saline. Doses of drugs were based on previous behavioral research in mice (1 mg/kg for PTX and 10 mg/kg for flumazenil). Injections were given in a volume of 10 ml/kg. A vehicle control was run along side the treatment groups (0.4% ETOH in saline).\nFIG. 1 graphically depicts the protocol. After habituation to the animal facility, mice were tested for baseline behaviors in the open-field locomotor assay (LMA)(30 min session) and the novel object recognition assay. Primary experimental groups were divided by genotype (Ts65Dn mice and wild-type control littermates). These two groups were further divided into drug treatments (vehicle, PTX and flumazenil) with a targeted n-size of 8 mice/group (24 WT and 24 Ts65Dn mice total). The group assignments were made in a semi-random process due to constraints in animal availability (staggered shipping) and choice of initial treatment groups (e-mail documentation between Bilsky laboratory and Cypress Bioscience on file). Daily morning injections began on Day 1 and went through the morning of Day 14. On Days 7/8 and 14/15 (13:00) mice were tested in the behavioral assay. Mice were kept for an additional two weeks and re-tested on Days 21/22 and 28/29 to assess the duration of the drug treatment effect.\nGeneral levels of arousal, locomotor activity and anxiety were assessed using an automated open-field activity monitoring system (Coulbourn Instruments with TruScan software). The open field test that were run were fully automated assays that quantified many different aspects and patterns of movement, including total distance traveled, time spent moving, rearing, and various stereotypic patterns of activity. The software calculates the time spent in the middle portions of the open field versus the outer zones alongside the outside walls. These variables can be used as one measure of general anxiety levels.\nMice were placed into an open field (26 cm×26 cm) in a brightly lit room. Two sensor rings (x-y plane and a vertical z plane) generate an array of infrared beams that surround the chamber. The pattern of beam breaks was recorded and the data fed into a personal computer. The TruScan software interpreted the beam breaks to calculate the movement variables and patterns of activity, with a temporal resolution of 100 msec. A 30 minutes session was used for assessment of the mice on Day 0 (Baseline) and then on Days 1, 7, 14, 21 and 28. Data were exported into an Excel spreadsheet, graphed and analyzed using parametric and non-parametric statistics."}, "Ts65Dn mice": {"system": "Ts65Dn mice", "test": "Long-term potentiation (LTP) in the dentate gyrus of Ts65Dn mice (paper Examples 1 and 2)", "format": "in vivo, mouse", "conditions": "about 1 month after cessation of drug treatment", "from_the_text": "Since the ability of animals to learn and remember is thought to be encoded at the synaptic level, and involves the ability of synapses to undergo long-term changes in synapse strength, long-term potentiation (LTP) in the dentate gyrus may be evaluated."}, "Down Syndrome patients": {"system": "Down Syndrome patients", "test": "Cognition in Down Syndrome patients, double-blind cross-over (Example 3)", "format": "in vivo, human", "conditions": "5 and 20 mg", "procedure": "Fifteen adult or adolescent Down Syndrome patients experiencing at least some level of cognitive impairment participate in a double-blind, cross-over comparison of […]. The drugs administered are flumazenil (5 and 20 mg), bretazenil (5 and 20 mg) or placebo. Subjects are randomly assigned to treatments according to a Williams Square design (Higgitt, supra (citing Williams, “Experimental designs balanced for the estimation of residual effects of treatments, Aust. J. Sci. Res. 2:149-168 (1949))). Each subject receives a different sequence of four treatments balanced for carry-over effects and separated by at least 1 week of wash-out period. […]\nPsychophysiological indices to be measured include: EEG, skin conductance, finger tremor, critical flicker fusion threshold, blood pressure and pulse rate, key tapping rate, and reaction time. […]\nEEG and evoked responses: These are recorded during the same EEG recording procedure. […] In addition, the four values are summed and each is expressed as a percentage of the total.\nThe averaged evoked responses are obtained from the 500 ms epoch of the EEG following each of the 32 click stimuli. […] The latency at each peak and peak-to-peak amplitudes are computed and recorded automatically. […]\nSkin conductance, blood pressure and pulse rate can be measured by the method of Higgitt et al., supra. […]"}, "benzodiazepine receptors": {"system": "benzodiazepine receptors", "conditions": "cited from earlier work"}}}
{"molecule": "CCOC(=O)c1ncn2c1CN(C)C(=O)c1cc(F)ccc1-2", "note": "[flumazenil, 8-fluoro-5,6-dihydro-5-methyl-6-oxo-4H-imidazo[1,5-a]benzodiazepine-3-carboxylic acid ethyl ester]", "values": [{"measurement": "LMA vertical rearing", "setting": "WT and Ts65Dn mice; PTX during drug administration phases, flumazenil over the 4 week testing regimen", "result": "least effect"}, {"measurement": "LMA marginal distance traveled", "setting": "WT and Ts65Dn mice; across sessions, PTX 1 mg/kg, flumazenil 10 mg/kg i.p.", "result": "very little habituation across sessions"}, {"measurement": "LTP in the dentate gyrus", "setting": "Ts65Dn mice", "result": "Normalized LTP"}, {"measurement": "indicators of cognition as compared to placebo", "setting": "Down Syndrome patients", "result": "improvement in one or more indicators of cognition"}, {"measurement": "antagonism of the effects of diazepam", "setting": "benzodiazepine receptors; given orally or intravenously", "result": "effectively antagonizes"}, {"measurement": "activity at oral dosing", "setting": "benzodiazepine receptors; oral 30 to 100 mg, normal adult human subjects", "result": "partial benzodiazepine agonist"}]}
